Legend:
[1] = test system: pine species (loblolly pine); experiment: Field experiment Site 2: percent brownout of pine species following May application; format: in vivo, Pinus taeda; conditions: Site 2, May application, 0.840 kg a.i./ha, 1 WAT
Description: For the following experiment the phenyluracil of formula I and optionally the herbicide B were applied as an aqueous spray liquor. Phenyluracil I.1.4 (phenyluracil of formula I) was used as emulsifiable concentrate (0.120 kg a.i./L). Imazapyr (herbicide B) was used as an emulsifiable concentrate (26.7% by weight; Chopper®/BASF Corporation). Glyphosate (herbicide B) was used as a soluble concentrate (53.8% by weight; Accord® Concentrate/Dow AgroScience) Methylated seed oil (MSO) was also added to the spray liquor in amounts of 25.0% volume/volume as a standard spray adjuvant. Water was used as the carrier. Spray carrier volume was 65 L/ha.
The spray liquor had the following general recipe (based on a spray volume of 65 L/ha):
Herbicide treatments were applied in the spring using a pole sprayer with a single KLC-9 flood tip spraying from a height of 335 cm. This application technique was used to simulate operational aerial applications as closely as practical. Treatment plots were 9×18 m.
Woody vegetation was assessed at treatment and in the fall of the year of treatment and one year after treatment (one and two growing seasons after treatment). The most common woody species on the site at treatment included loblolly pine (Pinus taeda), southern red oak (Quercus falcata), water oak (Quercus nigra) and Vaccinium spp. […]

[2] = test system: wildling pine of the variety Loblolly (Pinus taeda); experiment: Field experiment Site 4: wildling Loblolly pine control, damage rating 0 to 100%; format: in vivo; conditions: field Site 4, combined with phenyluracil I.1.4
Description: The evaluation for the damage caused by the chemical compositions was carried out using a scale from 0 to 100%, compared to the untreated control plants. Here, 0 means no damage and 100 means complete destruction of the plants.

Row | Structure (SMILES) | brownout of pine species [1] | effect of addition on control of wildling pine (in words) [2]
1 | CC(C)C1(C)N=C(c2ncccc2C(=O)O)NC1=O (centres unmarked) [imazapyr] | 2% | 
2 | COc1c(Cl)ccc(Cl)c1C(=O)O [dicamba] |  | improved the control
